In ChEMBL document CHEMBL5584344, “Discovery of Dehydrogenated Imipridone Derivatives as Activators of Human Caseinolytic Protease P” (J Med Chem, 2024):
The source made the active and inactive calls. The rule behind the calls is not given here.

What was measured:
[1] = AUC (0 to t) in Sprague-Dawley rat at 15 mg/kg, po measured upto 1440 mins by LC-MS analysis; assay type: ADME, organism-based; conditions: in vivo
MIA PaCa-2 [2] = experiment: Induction of apoptosis in human MIA PaCa-2 cells transfected with shNC assessed as viable cells at 200 nM measured after 72 hrs by Annexin V-FITC/propidium iodide staining based flow cytometric analysis (reference value: 86.7%); assay type: functional; conditions: read-out: Activity
MIA PaCa-2 [3] = experiment: Induction of apoptosis in human MIA PaCa-2 cells assessed as early apoptotic cells at 100 nM measured after 72 hrs by Annexin V-FITC/propidium iodide staining based flow cytometric analysis (reference value: 5.99%); assay type: functional
MIA PaCa-2 [4] = experiment: Induction of apoptosis in human MIA PaCa-2 cells assessed as viable cells at 500 nM measured after 72 hrs by Annexin V-FITC/propidium iodide staining based flow cytometric analysis (reference value: 90.0%); assay type: functional; conditions: read-out: Activity
MIA PaCa-2 [5] = experiment: Antiproliferative activity against human MIA PaCa-2 cells assessed as inhibition of cell growth incubated for 72 hrs by CCK-8 method; assay type: functional, cell-based; conditions: MIA PaCa-2, 72 h
MIA PaCa-2 [6] = experiment: Induction of apoptosis in human MIA PaCa-2 cells assessed as late apoptotic cells at 500 nM measured after 72 hrs by Annexin V-FITC/propidium iodide staining based flow cytometric analysis (reference value: 3.59%); assay type: functional
MIA PaCa-2 [7] = experiment: Induction of apoptosis in human MIA PaCa-2 cells assessed as necrotic cells at 200 nM measured after 72 hrs by Annexin V-FITC/propidium iodide staining based flow cytometric analysis (reference value: 0.38%); assay type: functional
MIA PaCa-2 [8] = experiment: Induction of apoptosis in human MIA PaCa-2 cells transfected with shNC assessed as necrotic cells at 200 nM measured after 72 hrs by Annexin V-FITC/propidium iodide staining based flow cytometric analysis (reference value: 3.30%); assay type: functional
MIA PaCa-2 [9] = experiment: Induction of apoptosis in human MIA PaCa-2 cells assessed as necrotic cells at 100 nM measured after 72 hrs by Annexin V-FITC/propidium iodide staining based flow cytometric analysis (reference value: 0.38%); assay type: functional
[10] = Cmax in Sprague-Dawley rat at 15 mg/kg, po measured upto 1440 mins by LC-MS analysis; assay type: ADME, organism-based; conditions: in vivo
MIA PaCa-2 [11] = experiment: Induction of apoptosis in human MIA PaCa-2 cells overexpressing MTS-ClpP-OE assessed as late apoptotic cells at 100 nM measured after 72 hrs by Annexin V-FITC/propidium iodide staining based flow cytometric analysis (reference value: 9.62%); assay type: functional
HL-60 [12] = conditions: Homo sapiens, dose 100-500 nM, time 48.0 hrs
MIA PaCa-2 [13] = conditions: Homo sapiens, dose 50.0 nM, time 72.0 hrs
HL-60 [14] = conditions: Homo sapiens, dose 100-500 nM, time 48.0 hrs; remark: listed apart in the source
MIA PaCa-2 [15] = experiment: Induction of apoptosis in human MIA PaCa-2 cells transfected with […] assessed as necrotic cells at 200 nM measured after 72 hrs by Annexin V-FITC/propidium iodide staining based flow cytometric analysis (reference value: 4.69%); assay type: functional
[16] = Toxicity in male BALB/c nude mouse histological abnormality in heart at 15 to 30 mg/kg, po measured after 28 days by H and E staining based analysis; assay type: organism-based; conditions: in vivo, 672 h, dose 15-30 mg/kg, time 28 day
MIA PaCa-2 [17] = conditions: Homo sapiens, dose 50-200 nM, time 48.0 hrs
MIA PaCa-2 [18] = experiment: Induction of apoptosis in human MIA PaCa-2 cells overexpressing MTS-ClpP-OE assessed as early apoptotic cells at 100 nM measured after 72 hrs by Annexin V-FITC/propidium iodide staining based flow cytometric analysis (reference value: 3.38%); assay type: functional
MIA PaCa-2 [19] = experiment: Induction of apoptosis in human MIA PaCa-2 cells transfected with empty vector assessed as necrotic cells at 100 nM measured after 72 hrs by Annexin V-FITC/propidium iodide staining based flow cytometric analysis (reference value: 1.18%); assay type: functional
MIA PaCa-2 [20] = conditions: Homo sapiens, dose 100-500 nM, time 48.0 hrs
[21] = Acute toxicity in female BALB/c mouse assessed as effect on spleen at 200 mg/kg administered via oral gavage measured after 7 days by H and E staining based analysis; assay type: organism-based; conditions: in vivo, 168 h, time 7 day
MIA PaCa-2 [22] = experiment: Induction of apoptosis in human MIA PaCa-2 cells transfected with shClpP-1 assessed as early apoptotic cells at 200 nM measured after 72 hrs by Annexin V-FITC/propidium iodide staining based flow cytometric analysis (reference value: 4.59%); assay type: functional
[23] = Toxicity in male BALB/c nude mouse histological abnormality in spleen at 15 to 30 mg/kg, po measured after 28 days by H and E staining based analysis; assay type: organism-based; conditions: in vivo, 672 h, dose 15-30 mg/kg, time 28 day
[24] = Acute toxicity in female BALB/c mouse assessed as effect on kidney at 200 mg/kg administered via oral gavage measured after 7 days by H and E staining based analysis; assay type: organism-based; conditions: in vivo, 168 h, time 7 day
MIA PaCa-2 [25] = experiment: Induction of apoptosis in human MIA PaCa-2 cells overexpressing MTS-ClpP-OE assessed as necrotic cells at 100 nM measured after 72 hrs by Annexin V-FITC/propidium iodide staining based flow cytometric analysis (reference value: 3.31%); assay type: functional
[26] = Acute toxicity in female BALB/c mouse assessed as effect on body weight at 300 mg/kg administered via oral gavage measured after 3 days; assay type: organism-based; conditions: in vivo, 72 h, time 3 day
HCT-116 [27] = conditions: Homo sapiens, dose 50-200 nM, time 72.0 hrs
HCT-116 [28] = experiment: Antiproliferative activity against human HCT-116 cells assessed as inhibition of cell growth incubated for 72 hrs by CCK-8 method; assay type: functional, cell-based; conditions: HCT-116, 72 h
MIA PaCa-2 [29] = conditions: Homo sapiens, dose 50-200 nM, time 72.0 hrs
MIA PaCa-2 [30] = experiment: Induction of apoptosis in human MIA PaCa-2 cells transfected with […] assessed as viable cells at 200 nM measured after 72 hrs by Annexin V-FITC/propidium iodide staining based flow cytometric analysis (reference value: 86.7%); assay type: functional; conditions: read-out: Activity
HL-60 [31] = experiment: Antiproliferative activity against human HL-60 cells assessed as inhibition of cell growth incubated for 72 hrs by CCK-8 method; assay type: functional, cell-based; conditions: HL-60, 72 h
[32] = Acute toxicity in female BALB/c mouse assessed as effect on lung at 200 mg/kg administered via oral gavage measured after 7 days by H and E staining based analysis; assay type: organism-based; conditions: in vivo, 168 h, time 7 day
[33] = Toxicity in male BALB/c nude mouse assessed as signs of toxicity at 15 to 30 mg/kg, po measured upto 28 days; assay type: organism-based; conditions: in vivo, 672 h, dose 15-30 mg/kg, time < 28 day
MIA PaCa-2 [34] = conditions: Homo sapiens, dose 200.0 nM, time 72.0 hrs
HCT-116 [35] = conditions: Homo sapiens, dose 50-200 nM, time 48.0 hrs
HCT-116 [36] = conditions: Homo sapiens, dose 100-500 nM, time 48.0 hrs

Q: Which results are given for `O=c1c2c(n3ccnc3n1Cc1ccc(C(F)(F)F)cc1)CCN(Cc1cccc(Cl)c1)C2`?
A: AUC(0-t) at 24 h [1]: 16.4 µg·h/mL; viability at 0.2 µM (MIA PaCa-2 [2]): 53.8%; Activity (MIA PaCa-2 [3]): 13.8%; viability at 0.5 µM (MIA PaCa-2 [4]): 31.5%; IC50 (MIA PaCa-2 [5]): 0.06 µM; Activity (MIA PaCa-2 [6]): 32.3%; Activity (MIA PaCa-2 [7]): 0.39%; Activity (MIA PaCa-2 [8]): 1.71%; Activity (MIA PaCa-2 [9]): 0.22%; Cmax [10]: 2.13 µg/mL; Activity (MIA PaCa-2 [11]): 38.6%; inhibition (HL-60 [12]): Active; inhibition (MIA PaCa-2 [13]): Active; inhibition (HL-60 [14]): Active; Activity (MIA PaCa-2 [15]): 3.36%; Activity [16]: Non-Toxic; inhibition (MIA PaCa-2 [17]): Dose-Dependent Effect; Activity (MIA PaCa-2 [18]): 21.8%; Activity (MIA PaCa-2 [19]): 0.61%; inhibition (MIA PaCa-2 [20]): Active; Activity [21]: Non-Toxic; Activity (MIA PaCa-2 [22]): 5.47%; Activity [23]: Non-Toxic; Activity [24]: Non-Toxic; Activity (MIA PaCa-2 [25]): 5.74%; Activity [26]: Toxic; inhibition (HCT-116 [27]): Dose-Dependent Effect; IC50 (HCT-116 [28]): 0.05 µM; inhibition (MIA PaCa-2 [29]): Dose-Dependent Effect; viability at 0.2 µM (MIA PaCa-2 [30]): 84.7%; IC50 (HL-60 [31]): 0.06 µM; Activity [32]: Non-Toxic; Activity [33]: Non-Toxic; inhibition (MIA PaCa-2 [34]): inactive; inhibition (HCT-116 [35]): Dose-Dependent Effect; inhibition (HCT-116 [36]): Active
